The source made the active and inactive calls. No cut-off for these calls is given here.
Tests used:
[1] = molecular target: T1, Aurora kinase A (Homo sapiens) (UniProt O14965); assay: Inhibition of AURKA (unknown origin) at 1 uM relative to control
T1 sequence (whole entry): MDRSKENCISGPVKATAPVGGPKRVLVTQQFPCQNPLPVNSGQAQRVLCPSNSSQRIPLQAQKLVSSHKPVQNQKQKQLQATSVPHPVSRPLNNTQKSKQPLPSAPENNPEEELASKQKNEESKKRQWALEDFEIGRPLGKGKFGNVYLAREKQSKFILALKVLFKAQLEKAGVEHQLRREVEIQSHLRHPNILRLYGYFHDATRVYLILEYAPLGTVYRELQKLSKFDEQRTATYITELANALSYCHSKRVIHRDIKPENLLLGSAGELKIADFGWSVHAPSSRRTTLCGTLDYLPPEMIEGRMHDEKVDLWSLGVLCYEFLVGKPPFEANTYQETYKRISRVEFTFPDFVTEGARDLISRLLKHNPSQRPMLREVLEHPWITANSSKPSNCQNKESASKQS

[2] = molecular target: T2, Kinesin-like protein KIF15 (Homo sapiens) (UniProt Q9NS87); assay: Inhibition of recombinant His6-tagged Kif15 ATPase activity (N420 residues) (unknown origin) expressed in HeLa cells at 10 uM using microtubule as substrate preincubated for 15 mins followed by ATP addition and measured after 20 mins by ADP-Glo luminescence assay relative to control
T2 sequence (whole entry): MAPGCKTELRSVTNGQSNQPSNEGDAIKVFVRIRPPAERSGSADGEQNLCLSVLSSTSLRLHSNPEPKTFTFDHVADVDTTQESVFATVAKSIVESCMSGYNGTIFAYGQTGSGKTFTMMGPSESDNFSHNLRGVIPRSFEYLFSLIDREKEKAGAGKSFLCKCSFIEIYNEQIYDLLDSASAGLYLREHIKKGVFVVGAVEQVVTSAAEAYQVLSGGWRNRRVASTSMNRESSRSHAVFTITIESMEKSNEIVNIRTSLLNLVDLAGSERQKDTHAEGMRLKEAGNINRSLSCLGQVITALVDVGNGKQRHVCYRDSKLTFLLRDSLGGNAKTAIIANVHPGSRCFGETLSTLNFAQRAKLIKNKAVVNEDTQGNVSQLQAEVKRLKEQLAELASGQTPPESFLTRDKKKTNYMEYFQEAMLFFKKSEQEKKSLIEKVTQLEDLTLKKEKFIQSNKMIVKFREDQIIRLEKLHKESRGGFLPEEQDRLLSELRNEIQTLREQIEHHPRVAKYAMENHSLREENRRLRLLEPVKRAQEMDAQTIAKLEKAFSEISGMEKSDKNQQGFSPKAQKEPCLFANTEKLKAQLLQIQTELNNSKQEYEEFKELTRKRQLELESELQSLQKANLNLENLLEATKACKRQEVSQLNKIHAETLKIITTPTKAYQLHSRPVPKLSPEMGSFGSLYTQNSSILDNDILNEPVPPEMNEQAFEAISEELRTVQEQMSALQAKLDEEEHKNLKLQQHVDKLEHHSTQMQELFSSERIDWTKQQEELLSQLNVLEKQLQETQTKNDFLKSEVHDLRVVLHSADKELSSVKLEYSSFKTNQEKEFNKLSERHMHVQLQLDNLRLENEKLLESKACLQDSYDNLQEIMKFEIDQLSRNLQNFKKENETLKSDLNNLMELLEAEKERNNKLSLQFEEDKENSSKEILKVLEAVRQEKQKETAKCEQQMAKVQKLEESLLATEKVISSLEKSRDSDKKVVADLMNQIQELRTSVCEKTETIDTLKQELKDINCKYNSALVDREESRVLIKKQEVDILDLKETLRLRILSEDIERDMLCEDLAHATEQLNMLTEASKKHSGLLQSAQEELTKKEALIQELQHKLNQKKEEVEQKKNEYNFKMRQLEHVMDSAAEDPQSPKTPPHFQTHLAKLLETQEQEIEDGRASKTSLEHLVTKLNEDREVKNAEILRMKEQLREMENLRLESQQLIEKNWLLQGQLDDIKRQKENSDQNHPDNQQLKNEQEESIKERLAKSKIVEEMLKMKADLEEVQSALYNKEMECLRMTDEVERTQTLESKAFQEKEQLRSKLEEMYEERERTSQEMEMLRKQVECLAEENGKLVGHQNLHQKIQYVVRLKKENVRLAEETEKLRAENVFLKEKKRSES

[3] = molecular target: T3, Kinesin-like protein KIFC1 (Homo sapiens) (UniProt Q9BW19); assay: Inhibition of recombinant His6-tagged HSET (unknown origin) assessed as reduction in Alexa-594 labelled microtubule gliding at 30 uM measured every 2 secs for 20 secs by epifluorescence microscopic analysis relative to control
T3 sequence (whole entry): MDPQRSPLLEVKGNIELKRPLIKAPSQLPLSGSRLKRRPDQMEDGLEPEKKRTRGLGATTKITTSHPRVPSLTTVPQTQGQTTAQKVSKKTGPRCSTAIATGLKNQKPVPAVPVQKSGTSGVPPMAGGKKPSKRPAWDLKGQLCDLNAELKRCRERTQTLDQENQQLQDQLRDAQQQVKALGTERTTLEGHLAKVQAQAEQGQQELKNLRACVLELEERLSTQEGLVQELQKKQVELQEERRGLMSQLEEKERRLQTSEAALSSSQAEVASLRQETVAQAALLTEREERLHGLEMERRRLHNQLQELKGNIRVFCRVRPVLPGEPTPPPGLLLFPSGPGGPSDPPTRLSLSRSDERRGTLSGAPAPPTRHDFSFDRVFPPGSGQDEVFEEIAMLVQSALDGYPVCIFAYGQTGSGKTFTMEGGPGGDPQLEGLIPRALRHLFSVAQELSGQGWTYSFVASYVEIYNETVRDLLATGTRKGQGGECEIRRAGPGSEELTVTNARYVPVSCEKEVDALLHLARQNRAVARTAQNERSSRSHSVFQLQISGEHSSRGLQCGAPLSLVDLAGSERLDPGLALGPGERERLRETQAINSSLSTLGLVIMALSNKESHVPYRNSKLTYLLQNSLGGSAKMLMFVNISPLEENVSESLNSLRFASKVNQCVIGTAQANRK

[4] = molecular target: T4, Kinesin-like protein KIF15 (Homo sapiens, UniProt Q9NS87); assay: Inhibition of recombinant His6-tagged Kif15 ATPase activity (N420 residues) (unknown origin) expressed in HeLa cells using microtubule as substrate preincubated for 15 mins followed by ATP addition and measured after 20 mins by ADP-Glo luminescence assay
T4 sequence (Q9NS87 whole entry): T2 sequence (whole entry)

[5] = molecular target: T2, Kinesin-like protein KIF15 (Homo sapiens); assay: Reversible inhibition of recombinant His6-tagged Kif15 (N700 residues) (unknown origin) expressed in HeLa cells assessed as reduction in Alexa-594 labelled microtubule gliding at 10 uM treated for 1 min followed by compound washout and measured every 2 secs for 1 min by epifluorescence microscopic analysis; type: cell-based
[6] = molecular target: T2, Kinesin-like protein KIF15 (Homo sapiens); assay: ATP non-competitive inhibition of recombinant His6-tagged Kif15 ATPase activity (N700 residues) (unknown origin) expressed in HeLa cells at 0.5 to 2 uM using varying levels of microtubule as substrate preincubated for 30 mins followed by ATP addition by double reciprocal Lineweaver-Burk plot analysis; type: cell-based

O=C1Nc2ccc(C(=O)c3ccco3)cc2/C1=C/c1cc(Cl)c(O)c(Cl)c1
inhibition [1]: 67% | inhibition [2]: 76% | inhibition [3]: 5.3% | IC50 [4]: 820 nM | inhibition [5]: Active | inhibition [6]: Active

Reference: ChEMBL document CHEMBL4371054, “Dual inhibition of Kif15 by oxindole and quinazolinedione chemical probes” (Bioorg Med Chem Lett, 2019)
